Assay results as given in patent US10004222B2, “Small molecule ice recrystallization inhibitors and methods of use thereof” (THE UNIVERSITY OF OTTAWA, priority 2012, dated 2018).
Where two headings read alike, the source gives them in different places. Non-standard residues stand in square brackets, D forms with d. Residues, ends and D or L forms follow the SMILES beside them. *: point of attachment. X1 = O=C(C[C@H]1OC(CO)[C@H](O)[C@H](O)C1O)*; Orn = NCCC[C@H](N)C(=O)O

What was measured:
[1] = previously demonstrated; cited from earlier work
[2] = previously demonstrated; cited from earlier work; remark: listed apart in the source
[3] = thermal hysteresis (TH) activity and dynamic ice shaping, Clifton Nanoliter Osmometer; conditions: 0.01 mg/mL
Experimental: As both compound 4 (at 22 mM) and compound 5 (at 0.5 mM) are novel potent low molecular weight inhibitors of ice recrystallization, whether they were interacting directly with the ice lattice was investigated. Carbohydrate derivatives (compounds 3-6) were examined for TH activity using a Clifton Nanoliter Osmometer. See Tam, R. et al. (2009) “Solution Conformation of C-Linked Antifreeze Glycoprotein Analogues and Modulation of Ice Recrystallization” J. Am. Chem. Soc. 131:15747-15753; Tam, R. et al. (2008) “Hydration Index—A Better Parameter for Explaining Small Molecule Hydration in Inhibition of Ice Recrystallization” J. Am. Chem. Soc. 130: 17494-17501.
In this assay a single droplet of the sample in water was suspended in the center of an oil-filled well in a sample holder plate. The sample was then rapidly frozen using a thermoelectrically controlled microscope stage, then the temperature was raised and the sample melted until only a single ice crystal remained. Once a single ice crystal was obtained, its growth and behavior upon increasing/decreasing the temperature was viewed under a microscope.
The above synthesized C-linked AFGP analogues and carbohydrate derivatives were assessed for TH activity at 10 mg/mL. Compounds 3-6 could not be assessed for TH activity at this concentration due to their amphiphilic nature. […]

[4] = splat cooling ice recrystallization inhibition (IRI) assay; conditions: 0.5 mM
Experimental: In this assay, the area of ice crystals are measured after a 30 minute annealing time at −6.4° C. and compared to a positive control for ice recrystallization resulting in a quantitative measurement of the mean ice grain size. For a positive control, a phosphate buffered saline (PBS) solution was utilized. All samples were normalized to the PBS positive control. The ice recrystallization inhibition activity of the carbohydrate-based non-ionic surfactants n-octyl-β-D-glucopyranoside (compound 3) and n-octyl-β-D-galactopyranoside (compound 4) is shown in FIG. 1.
In this assay, the area of ice crystals are measured after a 30 minute annealing time at −6.4° C. and compared to a positive control for ice recrystallization resulting in a quantitative measurement of the mean ice grain size. For a positive control, a PBS solution was utilized. All samples were normalized to the PBS positive control.
N-aryl-D-gluconamides (3a), (2a), (4a), and (1b) are a class of low molecular weight carbohydrate-based compounds. The ice recrystallization inhibition activity of (3a), (2a), (4a), and (1b) was assessed using a “splat cooling” assay. In this assay, the area of ice crystals are measured after a 30 minutes annealing time at −6.4° C. and compared to a positive control for ice recrystallization resulting in a quantitative measurement of the mean ice grain size. For a positive control, PBS was utilized. All samples were normalized to the PBS positive control.

[5] = solubility and gelation in water, PBS; type: physicochemical
[6] = tested on: human embryonic liver cells; conditions: compared with DMSO; cited from earlier work

Row | solubility [5] | SMILES | ice recrystallization inhibition activity [1] | TH activity [2] | dynamic ice shaping [3] | ice recrystallization inhibition activity [4] | cryoprotective ability [6]
1 | – | N[C@@H](CC[C@H]1OC(CO)[C@H](O)[C@H](O)C1O)C(=O)NCC(=O)NCC(=O)N[C@@H](CC[C@H]1OC(CO)[C@H](O)[C@H](O)C1O)C(=O)NCC(=O)NCC(=O)N[C@@H](CC[C@H]1OC(CO)[C@H](O)[C@H](O)C1O)C(=O)NCC(=O)NCC(=O)N[C@@H](CC[C@H]1OC(CO)[C@H](O)[C@H](O)C1O)C(=O)NCC(=O)NCC(=O)NCC(=O)O (some centres unmarked) [analog 2] | potent inhibitors of ice recrystallization | do not exhibit TH activity | – | – | –
2 | poor solubilities | CCCCCCCCNC(=O)[C@H](O)[C@@H](O)[C@@H](O)[C@H](O)CO [compound 6, N-octyl-D-galactonamide] | – | – | do not exhibit this activity | only moderate | –
3 | poor solubilities | CCCCCCCCNC(=O)[C@H](O)[C@@H](O)[C@H](O)[C@H](O)CO [compound 5, N-octyl-D-gluconamide] | – | – | do not exhibit this activity | potent | –
4 | – | N[C@@H](CCCNC(=O)C[C@H]1OC(CO)[C@H](O)[C@H](O)C1O)C(=O)NCC(=O)NCC(=O)N[C@@H](CCCNC(=O)C[C@H]1OC(CO)[C@H](O)[C@H](O)C1O)C(=O)NCC(=O)NCC(=O)N[C@@H](CCCNC(=O)C[C@H]1OC(CO)[C@H](O)[C@H](O)C1O)C(=O)NCC(=O)NCC(=O)N[C@@H](CCCNC(=O)C[C@H]1OC(CO)[C@H](O)[C@H](O)C1O)C(=O)NCC(=O)NCC(=O)NCC(=O)O (some centres unmarked) [analog 1] (H-[Orn](X1)GG[Orn](X1)GG[Orn](X1)GG[Orn](X1)GGG-OH) | potent inhibitors of ice recrystallization | do not exhibit TH activity | – | – | as effective as a 2.5% solution of DMSO
